What was measured:
[1] = test system: Plasmodium falciparum; test: microbe, parasite or virus in culture; format: functional, organism-based; conditions: HB3, 72 h
Description: Antimalarial activity against chloroquine sensitive Plasmodium falciparum HB3 after 72 hrs by SYBP Green I dye staining

[2] = test system: Plasmodium falciparum; test: microbe, parasite or virus in culture; format: functional, organism-based; conditions: Dd2, 72 h
Description: Antimalarial activity against chloroquine resistant Plasmodium falciparum Dd2 after 72 hrs by SYBP Green I dye staining

[3] = Inhibition of beta-hematin formation after 16 hrs at pH 5.2 by microplate reader; format: functional
[4] = Inhibition of beta-hematin formation after 16 hrs at pH 5.6 by microplate reader; format: functional
[5] = test system: Plasmodium falciparum; test: Ratio of compound IC50 to cinchonine IC50 for chloroquine sensitive Plasmodium falciparum HB3; format: functional
[6] = test system: Plasmodium falciparum; test: Ratio of compound IC50 to quinidine IC50 for chloroquine sensitive Plasmodium falciparum HB3; format: functional
[7] = test system: Plasmodium falciparum; test: Ratio of compound IC50 to quinidine IC50 for […] Plasmodium falciparum Dd2; format: functional

| Structure (SMILES) | IC50 [1] [nM] | IC50 [2] [nM] | IC50 [3] [nM] | IC50 [4] [nM] | Ratio IC50 [5] | Ratio IC50 [6] | Ratio IC50 [7] |
| --- | --- | --- | --- | --- | --- | --- | --- |
| COc1ccc2nccc([C@@H](O)[C@H]3C[C@H]4CCN3C[C@@H]4/C=C/c3cccc4ccccc34)c2c1 | > 500 | > 500 |  |  |  |  |  |
| CCN(CC)CCCC(C)Nc1ccnc2cc(Cl)ccc12 (stereo not drawn) [CHLOROQUINE] |  |  | 49000 | 33000 |  |  |  |
| CCOC(=O)c1ccc(/C=C/[C@H]2CN3CC[C@H]2C[C@@H]3[C@@H](O)c2ccnc3ccccc23)cc1 | 144 | 263 | 66000 | 50000 | 6 |  |  |
| COc1cccc(/C=C/[C@H]2CN3CC[C@@H]2C[C@@H]3[C@H](O)c2ccnc3ccc(OC)cc23)c1 | > 500 | > 500 |  |  |  |  |  |
| COc1ccc2nccc([C@H](O)[C@H]3C[C@@H]4CCN3C[C@@H]4/C=C/c3cccc(C(F)(F)F)c3)c2c1 | 98 | 182 |  |  |  | 6 | 2 |
| COc1ccc2nccc([C@@H](O)[C@H]3C[C@H]4CCN3C[C@@H]4/C=C/c3ccccc3C)c2c1 | > 500 | > 500 |  |  |  |  |  |
| O[C@@H](c1ccnc2ccccc12)[C@H]1C[C@@H]2CCN1C[C@@H]2/C=C/c1ccc(C(F)(F)F)cc1 | 66 | 983 |  |  | 6 |  |  |
| COc1ccc2nccc([C@@H](O)[C@H]3C[C@H]4CCN3C[C@@H]4/C=C/c3ccc(F)cc3)c2c1 | > 500 | > 500 | 44000 | 23000 |  |  |  |
| COc1ccc2nccc([C@@H](O)[C@H]3C[C@H]4CCN3C[C@@H]4/C=C/c3ccc4c(c3)OCO4)c2c1 | > 500 | > 500 |  |  |  |  |  |
| O[C@@H](c1ccnc2ccccc12)[C@H]1C[C@@H]2CCN1C[C@@H]2/C=C/c1cccc(C(F)(F)F)c1 | 154 | 146 | 63000 | 39000 | 6 |  |  |
| O[C@H](c1ccnc2ccccc12)[C@@H]1C[C@@H]2CCN1C[C@@H]2/C=C/c1cccc(C(F)(F)F)c1 | 394 | 928 | 75000 | 70000 |  |  |  |
| COc1ccc2nccc([C@@H](O)[C@H]3C[C@H]4CCN3C[C@@H]4/C=C/c3ccc(C)cc3)c2c1 | > 500 | > 500 |  |  |  |  |  |
| COc1ccc2nccc([C@@H](O)[C@H]3C[C@H]4CCN3C[C@@H]4/C=C/c3ccc4ccccc4c3)c2c1 | > 500 | > 1500 |  |  |  |  |  |
| C=C[C@H]1CN2CC[C@H]1C[C@@H]2[C@@H](O)c1ccnc2ccc(OC)cc12 [QUINIDINE] | 18 | 90 | 130000 | 23000 |  |  |  |
| CCOC(=O)c1ccc(/C=C/[C@H]2CN3CC[C@H]2C[C@H]3[C@H](O)c2ccnc3ccccc23)cc1 | 590 | 198 |  |  |  |  |  |
| COc1ccc(/C=C/[C@H]2CN3CC[C@@H]2C[C@@H]3[C@H](O)c2ccnc3ccc(OC)cc23)cc1 | > 500 | > 500 |  |  |  |  |  |

| Structure (SMILES) | IC50 [1] [nM] | IC50 [2] [nM] | IC50 [3] [nM] | IC50 [4] [nM] | Ratio IC50 [5] | Ratio IC50 [6] | Ratio IC50 [7] |
| --- | --- | --- | --- | --- | --- | --- | --- |
| O[C@H](c1ccnc2ccccc12)[C@@H]1C[C@@H]2CCN1C[C@@H]2/C=C/c1ccc(C(F)(F)F)cc1 | 297 | 223 |  |  |  |  |  |
| C=C[C@H]1CN2CC[C@H]1C[C@H]2[C@H](O)c1ccnc2ccc(OC)cc12 [QUININE] | 81 | 320 | 291000 | 34000 |  |  |  |
| O[C@@H](c1ccnc2ccccc12)[C@H]1C[C@@H]2CCN1C[C@@H]2/C=C/c1ccc(-c2ccccc2)cc1 | 90 | 243 |  |  | 6 |  |  |
| COc1ccc2nccc([C@H](O)[C@H]3C[C@@H]4CCN3C[C@@H]4/C=C/c3ccc(C(F)(F)F)cc3)c2c1 | 165 | 2350 |  |  |  |  |  |
| COc1ccc2nccc([C@H](O)[C@H]3C[C@@H]4CCN3C[C@@H]4/C=C/c3ccc(-c4ccccc4)cc3)c2c1 | 123 | 202 |  |  |  | 6 | 2 |
| COc1ccc2nccc([C@@H](O)[C@H]3C[C@H]4CCN3C[C@@H]4/C=C/c3ccc(-c4ccccc4)cc3)c2c1 | 128 | 184 |  |  |  |  |  |
| COc1ccc2nccc([C@@H](O)[C@H]3C[C@H]4CCN3C[C@@H]4/C=C/c3ccc(Cl)cc3)c2c1 | > 500 | > 500 |  |  |  |  |  |
| C=C[C@H]1CN2CC[C@H]1C[C@H]2[C@H](O)c1ccnc2ccccc12 [CINCHONIDINE] | 70 | 207 | 321000 | 142000 |  |  |  |
| CCOC(=O)c1ccc(/C=C/[C@H]2CN3CC[C@@H]2C[C@@H]3[C@H](O)c2ccnc3ccc(OC)cc23)cc1 | 428 | 318 | 54000 | 40000 |  |  |  |
| CCOC(=O)c1ccc(/C=C/[C@H]2CN3CC[C@H]2C[C@@H]3[C@@H](O)c2ccnc3ccc(OC)cc23)cc1 | 120 | 203 | 88000 | 40000 |  | 6 | 2 |
| COc1ccc2nccc([C@@H](O)[C@H]3C[C@H]4CCN3C[C@@H]4/C=C/c3cccc(C(F)(F)F)c3)c2c1 | > 500 | > 500 | 52000 |  |  |  |  |
| COc1ccc2nccc([C@@H](O)[C@H]3C[C@H]4CCN3C[C@@H]4/C=C/c3cccc(F)c3)c2c1 | 145 | 733 |  |  |  |  |  |
| O[C@H](c1ccnc2ccccc12)[C@@H]1C[C@@H]2CCN1C[C@@H]2/C=C/c1ccc(-c2ccccc2)cc1 | 127 | 176 |  | 116000 |  |  |  |
| COc1ccc2nccc([C@@H](O)[C@H]3C[C@H]4CCN3C[C@@H]4/C=C/c3ccc(C(F)(F)F)cc3)c2c1 | 427 | 485 | 100000 | 46000 |  |  |  |
| C=C[C@H]1CN2CC[C@H]1C[C@@H]2[C@@H](O)c1ccnc2ccccc12 [CINCHONINE] | 22 | 82 | 370000 | 170000 |  |  |  |
| COc1ccc2nccc([C@@H](O)[C@H]3C[C@H]4CCN3C[C@@H]4/C=C/c3ccccc3)c2c1 | > 500 | > 500 |  |  |  |  |  |

— ChEMBL document CHEMBL2021864, “Investigating the activity of quinine analogues versus chloroquine resistant Plasmodium falciparum” (Bioorg Med Chem, 2012)
